# Measurements: patent US20140093592A1, “[…] THE TREATMENT OF TREATMENT-[…] TREATMENT-RESISTANT DEPRESSION” (Janssen Pharmaceutica NV, priority 2012, published 2014)
# Columns and labels:
# [1] = tested on: patients with major depressive disorders; settings: cited from earlier work
# [2] = tested on: adult subjects with treatment-resistant depression (TRD); test: Clinician-Assessed Dissociative Symptom Scale (CADSS) total score, same clinical study
# [3] = tested on: adult subjects with treatment-resistant depression (TRD); test: Brief Psychiatric Rating Scale (BPRS) total score, same clinical study; settings: 0.40 mg/kg
# [4] = 0.20 mg/kg, Day 1 (4 Hour), baseline Day 1
# [5] = 0.20 mg/kg, Day 1 (40 Min), baseline Day 1
# [6] = 0.20 mg/kg, Day 2, baseline Day 1
# [7] = 0.20 mg/kg, Day 4 (4 Hour), baseline Day 4
# [8] = 0.20 mg/kg, Day 4 (40 Min), baseline Day 4
# [9] = 0.20 mg/kg, Day 5, baseline Day 4
# [10] = 0.40 mg/kg, Day 1 (4 Hour), baseline Day 1
# [11] = 0.40 mg/kg, Day 1 (40 Min), baseline Day 1
# [12] = 0.40 mg/kg, Day 2, baseline Day 1
# [13] = 0.40 mg/kg, Day 4 (4 Hour), baseline Day 4
# [14] = 0.40 mg/kg, Day 4 (40 Min), baseline Day 4
# [15] = 0.40 mg/kg, Day 5, baseline Day 4
smiles,measurement,setting,value
CNC1(c2ccccc2Cl)CCCCC1=O (racemic) [ketamine],Onset of rapid antidepressant effect,[1],within two hours
"CN[C@]1(c2ccccc2Cl)CCCCC1=O.Cl [Esketamine, (S)-2-(2-chlorophenyl)-2-(methylamino)cyclohexanone hydrochloride]","CADSS total score, Mean (SD)","[2]; 0.20 mg/kg, Day 1 (4 Hour)",0.00 (0.000)
same,"CADSS total score, Median","[2]; 0.20 mg/kg, Day 1 (4 Hour)",0.00
same,"CADSS total score change from baseline, Mean (SD)",[2]; [4],0.00 (0.000)
same,"CADSS total score change from baseline, Median",[2]; [4],0.00
same,"CADSS total score, Mean (SD)","[2]; 0.20 mg/kg, Day 1 (40 Min)",15.56 (24.653)
same,"CADSS total score, Median","[2]; 0.20 mg/kg, Day 1 (40 Min)",4.00
same,"CADSS total score change from baseline, Mean (SD)",[2]; [5],15.56 (24.653)
same,"CADSS total score change from baseline, Median",[2]; [5],4.00
same,"CADSS total score, Mean (SD)","[2]; 0.20 mg/kg, Day 1 (Predose)",0.00 (0.000)
same,"CADSS total score, Median","[2]; 0.20 mg/kg, Day 1 (Predose)",0.00
same,"CADSS total score, Mean (SD)","[2]; 0.20 mg/kg, Day 2",0.22 (0.667)
same,"CADSS total score, Median","[2]; 0.20 mg/kg, Day 2",0.00
same,"CADSS total score change from baseline, Mean (SD)",[2]; [6],0.22 (0.667)
same,"CADSS total score change from baseline, Median",[2]; [6],0.00
same,"CADSS total score, Mean (SD)","[2]; 0.20 mg/kg, Day 4 (4 Hour)",0.22 (0.667)
same,"CADSS total score, Median","[2]; 0.20 mg/kg, Day 4 (4 Hour)",0.00
same,"CADSS total score change from baseline, Mean (SD)",[2]; [7],0.22 (0.667)
same,"CADSS total score change from baseline, Median",[2]; [7],0.00
same,"CADSS total score, Mean (SD)","[2]; 0.20 mg/kg, Day 4 (40 Min)",6.38 (7.963)
same,"CADSS total score, Median","[2]; 0.20 mg/kg, Day 4 (40 Min)",4.00
same,"CADSS total score change from baseline, Mean (SD)",[2]; [8],6.38 (7.963)
same,"CADSS total score change from baseline, Median",[2]; [8],4.00
same,"CADSS total score, Mean (SD)","[2]; 0.20 mg/kg, Day 4 (Predose)",0.00 (0.000)
same,"CADSS total score, Median","[2]; 0.20 mg/kg, Day 4 (Predose)",0.00
same,"CADSS total score, Mean (SD)","[2]; 0.20 mg/kg, Day 5",0.11 (0.333)
same,"CADSS total score, Median","[2]; 0.20 mg/kg, Day 5",0.00
same,"CADSS total score change from baseline, Mean (SD)",[2]; [9],0.11 (0.333)
same,"CADSS total score change from baseline, Median",[2]; [9],0.00
same,"CADSS total score, Mean (SD)","[2]; 0.40 mg/kg, Day 1 (4 Hour)",0.36 (1.206)
same,"CADSS total score, Median","[2]; 0.40 mg/kg, Day 1 (4 Hour)",0.00
same,"CADSS total score change from baseline, Mean (SD)",[2]; [10],−0.55 (1.036)
same,"CADSS total score change from baseline, Median",[2]; [10],0.00
same,"CADSS total score, Mean (SD)","[2]; 0.40 mg/kg, Day 1 (40 Min)",22.00 (9.192)
same,"CADSS total score, Median","[2]; 0.40 mg/kg, Day 1 (40 Min)",23.00
same,"CADSS total score change from baseline, Mean (SD)",[2]; [11],21.56 (9.645)
same,"CADSS total score change from baseline, Median",[2]; [11],23.00
same,"CADSS total score, Mean (SD)","[2]; 0.40 mg/kg, Day 1 (Predose)",0.91 (1.921)
same,"CADSS total score, Median","[2]; 0.40 mg/kg, Day 1 (Predose)",0.00
same,"CADSS total score, Mean (SD)","[2]; 0.40 mg/kg, Day 2",0.73 (1.849)
same,"CADSS total score, Median","[2]; 0.40 mg/kg, Day 2",0.00
same,"CADSS total score change from baseline, Mean (SD)",[2]; [12],−0.18 (1.168)
same,"CADSS total score change from baseline, Median",[2]; [12],0.00
same,"CADSS total score, Mean (SD)","[2]; 0.40 mg/kg, Day 4 (4 Hour)",3.21 (8.929)
same,"CADSS total score, Median","[2]; 0.40 mg/kg, Day 4 (4 Hour)",0.00
same,"CADSS total score change from baseline, Mean (SD)",[2]; [13],3.16 (8.808)
same,"CADSS total score change from baseline, Median",[2]; [13],0.00
same,"CADSS total score, Mean (SD)","[2]; 0.40 mg/kg, Day 4 (40 Min)",15.67 (13.932)
same,"CADSS total score, Median","[2]; 0.40 mg/kg, Day 4 (40 Min)",10.00
same,"CADSS total score change from baseline, Mean (SD)",[2]; [14],15.67 (13.932)
same,"CADSS total score change from baseline, Median",[2]; [14],10.00
same,"CADSS total score, Mean (SD)","[2]; 0.40 mg/kg, Day 4 (Predose)",0.19 (0.680)
same,"CADSS total score, Median","[2]; 0.40 mg/kg, Day 4 (Predose)",0.00
same,"CADSS total score, Mean (SD)","[2]; 0.40 mg/kg, Day 5",0.25 (0.550)
same,"CADSS total score, Median","[2]; 0.40 mg/kg, Day 5",0.00
same,"CADSS total score change from baseline, Mean (SD)",[2]; [15],0.05 (0.759)
same,"CADSS total score change from baseline, Median",[2]; [15],0.00
same,Time at which maximum mean overall BPRS and CADSS scores (CNS side effects) were observed,[2]; corresponding to the end of the infusion,40 min
same,Time point at which BPRS and CADSS scores returned back to baseline values,"[2]; postdose, after the start of infusion",4 h
same,"BPRS total score, Mean (SE)",[3]; Day 1 (4 Hour),0.00 (0.000)
same,"BPRS total score, Mean (SE)",[3]; Day 1 (15 Min.),1.91 (0.625)
same,"BPRS total score, Mean (SE)",[3]; Day 1 (30 Min.),3.10 (0.960)
same,"BPRS total score, Mean (SE)",[3]; Day 1 (40 Min.),4.33 (1.323)
same,"BPRS total score, Mean (SE)",[3]; Day 1 (Predose),0.09 (0.091)
same,"BPRS total score, Mean (SE)",[3]; Day 2,0.00 (0.000)
same,"BPRS total score, Mean (SE)",[3]; Day 4 (2 Hour),0.43 (0.335)
same,"BPRS total score, Mean (SE)",[3]; Day 4 (4 Hour),0.29 (0.286)
same,"BPRS total score, Mean (SE)",[3]; Day 4 (15 Min.),1.90 (0.668)
same,"BPRS total score, Mean (SE)",[3]; Day 4 (30 Min.),3.32 (1.192)
same,"BPRS total score, Mean (SE)",[3]; Day 4 (40 Min.),3.16 (1.248)
same,"BPRS total score, Mean (SE)",[3]; Day 4 (Predose),0.05 (0.048)
same,"BPRS total score, Mean (SE)",[3]; Day 5,0.00 (0.000)
